Reference: US20180243308A1, “PHARMACEUTICAL COMBINATION” (Boehringer Ingelheim International GmbH, priority 2008, published 2018)

Key:
NCI-H460 = test: in vivo anti-tumor efficacy, NCI-H460 xenograft model; details: Lung (non-small-cell), NCI-H460, 25 mg/kg/d
Calu-6 = test: in vivo anti-tumor efficacy, Calu-6 xenograft model; details: Lung (non-small-cell), Calu-6, 50 mg/kg/d
PAC-120 = test: in vivo anti-tumor efficacy, PAC-120 xenograft model; details: Prostate (hormone-dependent), PAC-120, 100 mg/kg/d
GS-9L = test: in vivo anti-tumor efficacy, GS-9L syngeneic rat tumor model; details: Glioblastoma, 50 mg/kg/d
HT-29 large tumors = test: in vivo anti-tumor efficacy, HT-29 large tumors; details: Colorectal
SKOV3 = test: in vivo anti-tumor efficacy, SKOV3 xenograft model; details: Ovarian, SKOV3, 50 mg/kg/d
Caki-1 = test: in vivo anti-tumor efficacy, Caki-1 xenograft model; details: Renal, Caki-1, 100 mg/kg/d
HT-29 = test: in vivo anti-tumor efficacy, HT-29 xenograft model; details: Colorectal, HT-29, 100 mg/kg/d
FaDu = test: in vivo anti-tumor efficacy, FaDu xenograft model; details: Head and neck, 100 mg/kg/d
Rip-Tag = test: in vivo anti-tumor efficacy, Rip-Tag murine transgenic pancreas model
[1] = tested on: Calu-6 xenografts (human NSCLC tumor cell line); test: subcutaneous Calu-6 NSCLC xenografts, single agents and combination; type: in vivo; details: Calu-6 xenografts in nude mice, end of experiment (38 days of treatment), suboptimal doses
Protocol: In order to analyse the anti-tumor effects of combining the inhibition of tumor angiogenesis by interfering with the VEGFR signaling cascade with the established anti-proliferative treatment modality of NSCLC with compound B1, the following in vivo experiment was performed. Nude mice carrying established subcutaneous Calu-6 xenografts (human NSCLC tumor cell line) were randomized and treated with either compound B1 or compound A1 alone or with the combination of both drugs.

relapsed ovarian cancer = test: Phase II maintenance trial of compound A1 versus placebo; type: in vivo, human
Protocol: The primary efficacy endpoint of this trial was the Progression Free Survival Rate (PFSR) at 9 months after start of treatment with compound A1. As secondary endpoints PFS rate at 3 months and 6 months, respectively, and time to next anti-tumour treatment were evaluated.
Patients were randomly assigned to receive compound A1 at a dose of 250 mg twice daily or matching placebo. […] Patients were treated until diagnosis of progression of the underlying ovarian cancer disease. Progressive disease, for the analysis of the primary endpoint, was defined as either radiological progression, or tumour marker (CA-125) progression.
In total, 84 patients were entered into the trial. 44 patients were randomised to receive compound A1 at a dose of 250 mg twice daily, and 40 patients to receive matching placebo.

[2] = tested on: recurrent advanced stage NSCLC
Protocol: Patients with advanced stage NSCLC, PS 0-1, previously treated with one first line platinum-based chemotherapy regimen were eligible for this trial. […] Tumor assessments were performed at screening and after every second treatment cycle according to RECIST (Response Evaluation Criteria in Solid Tumors).

[3] = tested on: advanced non-small-cell lung cancer; test: Phase II double-blind randomized study of two doses of compound A1; type: in vivo, human; details: for median Progression Free Survival (PFS) time: all patients
Protocol: This study was conducted as a Phase II double-blind, randomized study of two different doses of orally administered compound A1 in patients with advanced non-small-cell lung cancer who had failed at least one prior chemotherapy regimen. The primary efficacy endpoints evaluated were response rate and time to progression. Important secondary endpoints were survival and tolerability of compound A1.
Patients were randomly assigned to receive compound A1 at a dose of 250 mg twice daily or 150 mg twice daily. The dose of compound A1 could be reduced stepwise to no lower than 100 mg twice daily in case of undue toxicity that would prevent chronic treatment. Patients were treated until diagnosis of progression of the underlying lung cancer disease. Progressive disease, for the analysis of the primary endpoint, was defined as radiological evidence of tumour progression according to RECIST criteria.
This randomized study enrolled 73 patients in total, 36 patients at the dose of 250 mg twice daily and 37 patients at the dose of 150 mg twice daily.
The ECOG performance status score is a scale from 0 to 5 with criteria used by doctors and researchers to assess how a patient's disease is progressing, assess how the disease affects the daily living abilities of the patient, and determine appropriate treatment and prognosis (Oken, M. M., Creech, R. H., Tormey, D. C., Horton, J., Davis, T. E., McFadden, E. T., Carbone, P. P.: Toxicity And Response Criteria Of The Eastern Cooperative Oncology Group. Am J Clin Oncol 5:649-655, 1982). […] Overall Survival (OS) time is defined as the length of time a patient lives after they are diagnosed with or treated for a disease.

[4] = 250 mg twice daily maintenance, preliminary data output

COC(=O)c1ccc2c(c1)NC(=O)/C2=C(\Nc1ccc(N(C)C(=O)CN2CCN(C)CC2)cc1)c1ccccc1 [compound A, 3-Z-[1-(4-(N-((4-methyl-piperazin-1-yl)-methylcarbonyl)-N-methyl-amino)-anilino)-1-phenyl-methylene]-6-methoxycarbonyl-2-indolinone]
T/C (NCI-H460): T/C 54% @ 25 mg/kg/d | T/C (Calu-6): T/C 24% @ 50 mg/kg/d | T/C (PAC-120): T/C 34% @ 100 mg/kg/d | T/C (GS-9L): T/C 32% @ 50 mg/kg/d | Efficacy (HT-29 large tumors): tumor volume reduction | T/C (SKOV3): T/C 19% @ 50 mg/kg/d | T/C (Caki-1): T/C 13% @ 100 mg/kg/d | T/C (HT-29): T/C 16% @ 100 mg/kg/d | T/C (FaDu): T/C 11% @ 100 mg/kg/d | Efficacy (cell wraps: interference with tumor formation) (Rip-Tag): interference with

Nc1nc2[nH]cc(CCc3ccc(C(=O)N[C@@H](CCC(=O)[O-])C(=O)[O-])cc3)c2c(=O)[nH]1.[Na+].[Na+] [compound B1, N-[4-[2-(2-amino-4,7-dihydro-4-oxo-1H-pyrrolo[2,3-d]pyrimidin-5-yl)ethyl]benzoyl]-L-Glutamic acid, disodium salt, heptahydrate, reference compound]
T/C value [1]: 46%

CCS(=O)(=O)O.COC(=O)c1ccc2c(c1)NC(=O)/C2=C(\Nc1ccc(N(C)C(=O)CN2CCN(C)CC2)cc1)c1ccccc1 [compound A1, 3-Z-[1-(4-(N-((4-methyl-piperazin-1-yl)-methylcarbonyl)-N-methyl-amino)-anilino)-1-phenyl-methylene]-6-methoxycarbonyl-2-indolinone-monoethanesulphonate]
PFS rate at 6 months (24 weeks) (relapsed ovarian cancer; [4]): 28.3% | PFS rate at 9 months (36 weeks) (relapsed ovarian cancer; [4]): 16.5% | median time to progression (relapsed ovarian cancer; based on radiological data, disregarding tumour marker progression): 143 days | PFS rate at 3 months (12 weeks) (relapsed ovarian cancer; versus placebo arm): not different between arms | time between tumour marker progression and radiological progression (relapsed ovarian cancer; versus placebo arm): longer | period the patient with the CR has been maintained on monotherapy ([2]; compound A1 monotherapy after combination stage): over 63 weeks | Maximum Tolerated Dose (MTD) of compound A1 ([2]; in combination with standard dose of compound B1 (500 mg/m^2)): 200 mg bid | Overall Survival (OS) time ([3]; 150 mg twice daily): 144 days | median Progression Free Survival (PFS) time ([3]; 150 mg twice daily): 48 days | Overall Survival (OS) time ([3]; 250 mg twice daily): 208 days | median Progression Free Survival (PFS) time ([3]; 250 mg twice daily): 53 days | median overall survival (OS) ([3]; all patients (ECOG 0-2)): 153 days | median PFS ([3]; baseline ECOG of 0 or 1, 150 mg twice daily): 81 days | median PFS ([3]; baseline ECOG of 0 or 1, 250 mg twice daily): 85 days | patients with stable disease ([3]; baseline ECOG of 2): one of the 17 patients | reduction (partial response) in tumor size ([3]; one patient, 250 mg twice daily, sustained through 9 months): 74% | median OS ([3]; patients with ECOG score of 0-1): 264 days | patients achieving clinical benefit ([3]; subgroup with ECOG 0 or 1): ~60% | T/C value [1]: 33%
